According to patent publication US6403149B1, “Fluorinated ketones as lubricant deposition solvents for magnetic media applications” (3M Innovative Properties Company, priority 2001, dated 2002):
Where two headings read alike, the source gives them in different places.

How the values were obtained:
[1] = Solubility/miscibility of perfluoropolyether lubricants (Z-DOL, AM 3001) and phosphazene additive X-1P in fluorinated solvents
Experimental: The term “miscible” denotes that the lubricant and fluorinated solvent were miscible in all proportions, forming an essentially clear solution. Any number entry denotes solubility in the fluorinated solvent as percent by weight. The term “NT” denotes that the compound was not tested for solubility with the solvent.
Z-DOL was evaluated for solubility in the following fluorinated ketones: […]

[2] = Solubility of impurities (dioctyl phthalate, silicone oils) in fluorinated solvents; type: physicochemical
Experimental: In Comparative Examples C6-C10, the same “impurities” were evaluated for solubility in C6F14 (a perfluorocarbon), C4F9OCH3 (a hydrofluoroether), CF3CFHCFHCF2CF3 (a hydrofluorocarbon), C3F5HCl2 (a hydrochlorofluorocarbon), and […] (a chlorofluorocarbon), all fluorinated solvents outside the scope of this invention.
The term “NT” denotes that the impurity was not tested in the fluorinated solvent.

[3] = Short-term inhalation tests with rats (acute toxicity); type: in vivo
Excerpt: (§1) Additionally, the fluorinated ketones have low toxicity.

[4] = Cardiac sensitization no-effect level; details: in vivo, inhaled
Excerpt: as §1

[5] = solute FOMBLIN AM 3001 perfluoropolyether lubricant, miscible = miscible in all proportions
[6] = solute Z-DOL perfluoropolyether lubricant, miscible = miscible in all proportions, essentially clear solution
[7] = solute X-1P cyclic phosphazene additive, miscible = miscible in all proportions

Molecule | Solubility of AM 3001 in the solvent [1, 5] | Solubility of Z-DOL in the solvent [1, 6] | Solubility of X-1P in the solvent [1, 7] | further results
FC(F)(F)C(F)(F)C(F)(F)C(F)(F)C(F)(F)C(F)(F)F [C6F14, perfluorohexane] | miscible | miscible | – | –
O=C(C(F)(F)C(F)(F)F)C(F)(C(F)(F)F)C(F)(F)F [CF3CF2C(O)CF(CF3)2, 1,1,1,2,4,4,5,5,5-nonafluoro-2-trifluoromethyl-pentan-3-one] | – | – | – | Solubility of DOP in the solvent [2]: 0.024; Solubility of Silicone 100 cst in the solvent [2]: <0.01; Solubility of Silicone 1000 cst in the solvent [2]: <0.01; Solubility of Silicone 10000 cst in the solvent [2]: <0.01; Solubility of AM 3001 in the solvent [1]: miscible; Solubility of X-1P in the solvent [1]: 0.03 percent by weight; Solubility of Z-DOL in the solvent [1]: miscible; Acute toxicity [3]: low acute toxicity; "no-effect" level for cardiac sensitization [4]: > 150,000 ppm
dichloropentafluoropropane [C3F5HCl2] | miscible | miscible | miscible | –
O=C(C(F)(F)C(F)(F)C(F)(F)F)C(F)(C(F)(F)F)C(F)(F)F [n-C3F7C(O)CF(CF3)2, 1,1,1,2,4,4,5,5,6,6,6-undecafluoro-2-trifluoromethylhexan-3-one] | miscible | miscible | – | –
FC(C(F)C(F)(F)C(F)(F)F)C(F)(F)F (stereo not shown) [CF3CFHCFHCF2CF3, 1,1,1,2,3,4,4,5,5,5-decafluoropentane] | miscible | miscible | miscible | –
O=C(C(F)(C(F)(F)F)C(F)(F)F)C(F)(C(F)(F)F)C(F)(F)F [(CF3)2CFC(O)CF(CF3)2, 1,1,1,2,4,5,5,5,6,6,6-octafluoro-2,4-bis(trifluoromethyl)pentan-3-one] | miscible | miscible | 0.03 percent by weight | –
COC(F)(F)C(F)(F)C(F)(F)C(F)(F)F [C4F9OCH3, perfluorobutyl methyl ether] | miscible | miscible | miscible | –
